# Laboratory results reported in ChEMBL document CHEMBL1158433, “A novel class of H3 antagonists derived from the natural product guided synthesis of unnatural analogs of the marine bromopyrrole alkaloid dispyrin” (Bioorg Med Chem Lett, 2009).
# pIC50, pKi: −log10 of the molar value.
# Target: T1, Histamine H3 receptor (Homo sapiens, UniProt Q9Y5N1)
# Experiment: Ratio of dispyrin IC50 to compound IC50 for human histamine H3 receptor
# T1 sequence (Q9Y5N1 whole entry): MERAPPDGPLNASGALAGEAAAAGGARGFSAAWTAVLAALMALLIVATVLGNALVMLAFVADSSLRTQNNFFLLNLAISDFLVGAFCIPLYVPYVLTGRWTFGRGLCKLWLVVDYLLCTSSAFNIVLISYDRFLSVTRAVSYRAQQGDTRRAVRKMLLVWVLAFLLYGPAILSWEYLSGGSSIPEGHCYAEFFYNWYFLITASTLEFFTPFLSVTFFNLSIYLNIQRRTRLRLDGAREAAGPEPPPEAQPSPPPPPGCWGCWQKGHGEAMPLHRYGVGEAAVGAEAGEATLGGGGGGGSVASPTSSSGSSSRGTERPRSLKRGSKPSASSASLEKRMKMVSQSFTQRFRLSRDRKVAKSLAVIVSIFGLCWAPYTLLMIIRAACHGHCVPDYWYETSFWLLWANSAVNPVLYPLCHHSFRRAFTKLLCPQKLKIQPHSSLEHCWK
row,SMILES,Ratio IC50
1,O=C(NCCc1ccc(OCCN2CCCC2)c(Br)c1)c1cc(Br)cs1,13
2,O=C(NCCc1ccc(OCCN2CCCC2)c(Br)c1)c1nccs1,33

# Target: T1, Histamine H3 receptor
# Experiment: Ratio of dispyrin Ki to compound Ki for human histamine H3 receptor
row,SMILES,Ratio Ki
1,O=C(NCCc1ccc(OCCN2CCCC2)c(Br)c1)c1cc(Br)cs1,13
2,O=C(NCCc1ccc(OCCN2CCCC2)c(Br)c1)c1nccs1,33

# Target: T1, Histamine H3 receptor
# Experiment: Displacement of [3H]SMT from human histamine H3 receptor
SMILES,pIC50,pKi
CN1CCCC(COc2ccc(CCNC(=O)c3cc(Br)c[nH]3)cc2Br)C1 (centres undefined),5.53,5.88
CN(C)CCOc1ccc(CCNC(=O)c2ccc[nH]2)cc1Br,,5.81
O=C(NCCc1ccc(OCCN2CCOCC2)c(Br)c1)c1cc(Br)c[nH]1,4.54,4.89
CN1CCCC(COc2ccc(CCNC(=O)c3cccn3C)cc2Br)C1 (centres undefined),5.44,5.78
O=C(NCCc1ccc(OCCN2CCOCC2)c(Br)c1)c1cc(Br)cs1,4.52,4.87
O=C(NCCc1ccc(OCCN2CCOCC2)c(Br)c1)c1ccc(Br)o1,4.14,4.49
"O=C(NCCc1ccc(OCCN2CCC(F)C2)c(Br)c1)c1cc(Br)cs1 (single isomer, unassigned; enantiomer 1)",5.68,5.96
CN1CCCC(COc2ccc(CCNC(=O)c3cc(Br)cs3)cc2Br)C1 (centres undefined),5.43,5.90
O=C(NCCc1ccc(OCCN2CCOCC2)c(Br)c1)c1ccc[nH]1,4.23,4.58
O=C(NCCc1ccc(OCCN2CCCC2)c(Br)c1)c1cncs1,6.59,6.92
CN(C)CCCOc1ccc(CCNC(=O)c2cccn2C)cc1Br,5.40,5.75
"CC1CCCN1CCOc1ccc(CCNC(=O)c2cc(Br)cs2)cc1Br (single isomer, unassigned; enantiomer 2)",6.12,6.48
Cn1cccc1C(=O)NCCc1ccc(OCCN2CCOCC2)c(Br)c1,4.40,4.75
O=C(NCCc1ccc(OCCN2CCC(F)C2)c(Br)c1)c1cc(Br)cs1 (stereo in doubt; 18d),5.60,5.94
O=C(NCCc1ccc(OCCN2CCCC2)c(Br)c1)c1nccs1,7.15,7.52
CN(C)CCOc1ccc(CCNC(=O)c2cccn2C)cc1Br,,5.67
CN(C)CCOc1ccc(CCNC(=O)c2cc(Br)cs2)cc1Br,5.82,
CN(C)CCCOc1ccc(CCNC(=O)c2ccc(Br)o2)cc1Br,,5.64
Cn1cccc1C(=O)NCCc1ccc(OCCN2CCCC2)c(Br)c1,6.51,
O=C(NCCc1ccc(OCCN2CCCC2)c(Br)c1)c1cnco1,7.10,7.52
CN(C)CCCOc1ccc(CCNC(=O)c2ccc[nH]2)cc1Br,,5.87
CN1CCCC(COc2ccc(CCNC(=O)c3ccc(Br)o3)cc2Br)C1 (centres undefined),5.34,
CN1CCCC(COc2ccc(CCNC(=O)c3ccc[nH]3)cc2Br)C1 (centres undefined),,5.82
"CC1CCCN1CCOc1ccc(CCNC(=O)c2cc(Br)cs2)cc1Br (single isomer, unassigned; enantiomer 1)",6.15,6.51
